Data from patent US9943518B2, “Inhibitors of phosphodiesterase type 5A for reducing skeletal muscle fatigue, edema, and damage in a patient having muscle fatigue due to increased age or exercise” (University of Iowa Research Foundation, priority 2008, dated 2018).
Entries after “also recorded” stand apart in the source; their conditions may differ.

What was measured:
wild-type mice [1] = assay: Exercise-activity assay in wild-type mice; format: in vivo, mouse
wild-type and mdx mice = settings: Thomas et al. 1998; cited from earlier work
[2] = system: dystrophic or nNOS-null mice; assay: Exercise-activity assay in dystrophic or nNOS-null mice; format: in vivo, mouse
rats = settings: Wang et al. 2001; cited from earlier work
human forearm = settings: local intra-arterial infusion, Seddon et al. 2008; cited from earlier work
wild-type mice [3] = settings: Kinugawa et al. 2005; cited from earlier work
mdx mice = assay: Exercise-activity assay (mild treadmill exercise, then open-field activity chamber) in mdx mice; format: in vivo, mouse; settings: treatment before mild treadmill exercise
mammals = settings: Barbato et al. 2005; cited from earlier work
wild-type mice [4] = settings: Miki et al. 2002; cited from earlier work
[5] = system: DGC models of muscular dystrophy; assay: Evans Blue Dye uptake in muscle following exercise; format: in vivo, mouse; settings: mice subjected to eccentric contractions
[6] = system: DGC models of muscular dystrophy; assay: Serum creatine kinase following exercise; format: in vivo, mouse; settings: mice subjected to eccentric contractions, 2 hours post-exercise
Description: In the assay, mice are initially placed in an activity cage for thirty minutes, and different activity measurements are measured and monitored during this time frame. The mice are then bled to measure serum creatine kinase (CK) levels and then the mice are injected with Evans Blue Dye. […]. Twenty-four hours later, the mice are then subject to a ten minute exercise protocol on a treadmill with a fifteen degree downhill incline at fifteen meters per minute. Following the exercise protocol, the mice are placed back in the activity cage, and post-exercise activity is measured for thirty minutes. […]
The pharmacological screen utilizes an exercise-activity assay to identify compounds that facilitate NO signaling in muscle having mislocalized nNOS. In the assay, mice are initially placed in an activity cage for thirty minutes to measure pre-exercise activity, and different activity measurements are measured and monitored during this time frame. […] Following the exercise protocol, the mice are placed back in the activity cage, and post-exercise activity is measured for thirty minutes. […]
Serum Creatine Kinase Assays. Blood for quantitative, kinetic determination of serum creatine kinase activity was collected either after the pre-exercise activity analysis or 2 hours post-exercise by mouse tail vein bleeds, using a Sarstedt microvette CB 300, from non-anesthetized restrained mice. […]

nNOS-null mice = assay: Exercise/activity assay in nNOS-null mice; format: in vivo, mouse; settings: administration prior to exercise
[7] = system: DGC models of muscular dystrophy; assay: Exercise/activity assay in DGC models of muscular dystrophy; format: in vivo, mouse; settings: administration prior to exercise
PDE5A = PDE5A (Homo sapiens, UniProt O76074); assay: PDE5A inhibition; format: biochemical; settings: at plasma concentration from 300 mg/kg/day

Question: For `O=[N+]([O-])c1cccc2c(Br)n[nH]c12` [3-bromo-7-nitroindazole], which post-exercise activity (wild-type mice [1]) is on record?
Answer: caused post-exercise inactivity

Question: Which “femoral blood flow velocity and vascular conductance” value (wild-type and mdx mice) does the source give for `COC(=O)[C@@H](N)CCCNC(=N)N[N+](=O)[O-]` [L-NAME] here?
Answer: decreases femoral blood flow velocity and vascular conductance

Question: And the mean arterial pressure (wild-type and mdx mice)?
Answer: increases mean arterial pressure

Question: What about the post-exercise activity (wild-type mice [1]) of the same molecule?
Answer: reduced post-exercise activity to levels similar to those in nNOS-null mice post-exercise

Question: And the post-exercise activity [2]?
Answer: reduced the activity post-exercise even more

Question: What about the walking speed (rats) of the same molecule?
Answer: severely reduces walking speed

Question: Which resting blood flow (human forearm) does the source give for `CNC(=N)NCCC[C@H](N)C(=O)O` [L-NMMA] here?
Answer: reduces resting blood flow

Question: Which “exercise-induced hyperemia and exercise capacity” value (wild-type mice [3]) does the source give for `NC(=NCCC[C@H](N)C(=O)O)N[N+](=O)[O-]` [L-NNA] here?
Answer: prevents adequate exercise-induced hyperemia and limits exercise capacity during exhaustive treadmill running

Question: Which “post-exercise activity / exaggerated fatigue response to mild exercise” value (mdx mice) does the source give for `CC1(C)CC(O)CC(C)(C)N1[O]` [Tempol] here?
Answer: had no effect on the exaggerated fatigue response

Question: With `CC(=O)OCC(=O)[C@@]12N=C(C)O[C@@H]1C[C@H]1[C@@H]3CCC4=CC(=O)C=C[C@]4(C)[C@H]3[C@@H](O)C[C@@]12C` [deflazacort] as the molecule, how does the “post-exercise activity / exaggerated fatigue response to mild exercise” value (mdx mice) read?
Answer: neither treatment resulted in improved post-exercise activity; also recorded: did not ameliorate inactivity post-exercise

Question: For `CC(C)Cc1ccc(C(C)C(=O)O)cc1` (stereo not shown) [ibuprofen], which “post-exercise activity / exaggerated fatigue response to mild exercise” value (mdx mice) is on record?
Answer: neither treatment resulted in improved post-exercise activity

Question: Which blood pressure (mammals) does the source give for `O=C(NCCO[N+](=O)[O-])c1cccnc1` [nicorandil] here?
Answer: significantly reducing blood pressure in mammals

Question: For `CC(N/C(=N\C#N)Nc1ccncc1)C(C)(C)C` (stereo not shown) [pinacidil], which mean arterial pressure (wild-type mice [4]) is on record?
Answer: decreases mean arterial pressure

Question: What does the source list for `CCCc1nn(C)c2c(=O)nc(-c3cc(S(=O)(=O)N4CCN(C)CC4)ccc3OCC)[nH]c12` [sildenafil, 5-[2-ethoxy-5-(4-methylpiperazin-1-yl)sulfonylphenyl]-1-methyl-3-propyl-4H-pyrazolo[5,4-e]pyrimidin-7-one]?
Answer: Evans Blue Dye uptake in muscle following exercise [5]: prevent an increase in serum CK and Evans Blue Dye uptake in muscle following exercise; serum CK following exercise [6]: prevent an increase in serum CK; post-exercise activity / exaggerated fatigue response to mild exercise (mdx mice): very effective at preventing the exercise-induced fatigue; post-exercise activity (nNOS-null mice): dramatically increased post-exercise activity; post-exercise activity [7]: very effective at preventing the loss of activity following exercise; also recorded: dramatically increased post-exercise activity; enzyme activity inhibited (PDE5A): more than 50%

Question: With `CN1CC(=O)N2[C@H](c3ccc4c(c3)OCO4)c3[nH]c4ccccc4c3C[C@@H]2C1=O` [tadalafil] as the molecule, how does the “post-exercise activity / exaggerated fatigue response to mild exercise” value (mdx mice) read?
Answer: very effective at preventing the exercise-induced fatigue

Question: Which post-exercise activity (wild-type mice [1]) does the source give for sarafotoxin 6c here?
Answer: caused post-exercise inactivity

Question: Which “post-exercise activity / exaggerated fatigue response to mild exercise” value (mdx mice) does the source give for superoxide dismutase here?
Answer: neither method of SOD exposure had an effect on the exaggerated fatigue response
